This is an account of results in patent publication US20240033283A1, “FUNCTIONALIZED AND CROSSLINKED POLYMERS” (PMIDG, LLC, priority 2020, published 2024).

A short description of the data set: Lidocaine release from gels (dialysis tubing). The format is physicochemical. As to conditions: PBS, 37° C. The procedure: HA and HA-DVS-MBA (83.3% substitution) gels were prepared in a similar manner as described in Example 18 using 0.75% BDDE and a pH of 13.1. About 2 g of each gel were added to a vial and 105 uL of a 6% (w/w) lidocaine HCl in PBS solution was added to each sample. After mixing, the samples were autoclaved for 5 minutes at 121° C. Approx. 1.5 g of each gel was transferred to dialysis tubing (Aldon Corporation, IS13027, 6.4 mm×10 mm, cut-off: 12-14 kDa). […] The loaded dialysis tubing was placed in separate 45 ml PBS solutions and incubated at 37° C. under oscillating conditions. […] The lidocaine content was measured using HPLC. The percent release was determined by released amount divided by the initial amount added. The release of the lidocaine from the HA and HA-MBA gels was similar.

Where a name gives a salt, the structure may show the parent alone.

Turning to `CCN(CC)CC(=O)Nc1c(C)cccc1C` [Lidocaine only, lidocaine HCl], the “Cumulative Release (%)” value was 82% (Time 0.5 hr); 87% (Time 1 hr); 86% (Time 1.5 hr); 84% (Time 2 hr); 82% (Time 3.5 hr).
